Source: patent US20220087983A1, “ACTIVATING PYRUVATE KINASE R” (FORMA Therapeutics, Inc., priority 2020, published 2022)
Values after ≈ are worked out from the molar mass of the structure shown.

Legend:
PKR(G332S) = PKR(G332S) (Homo sapiens, UniProt P30613, G332S); assay: Luminescence Assay (Kinase Glo Plus) of PKR activation; assay type: biochemical; details: G332S variant; Luminescence Assay of Example 2
Method: (§1) PKR Activating Compounds can be identified with the biochemical Luminescence Assay of Example 2. The PKR activating activity of a series of chemical compounds was evaluated using the Luminescence Assay below, including compounds designated Compound 1, and Compound 2, or mixtures thereof.
(§2) For each tested compound, the ability to activate PKR was determined using the following Luminescence Assay. The effect of phosphorylation of adenosine-5′-diphosphate (ADP) by PKR is determined by the Kinase Glo Plus Assay (Promega) in the presence or absence of FBP (D-fructose-1,6-diphosphate; BOC Sciences, CAS: 81028-91-3) as follows. Unless otherwise indicated, all reagents are purchased from Sigma-Aldrich. All reagents are prepared in buffer containing 50 mM Tris-HCl, 100 mM KCl, 5 mM MgCl2, and 0.01% Triton X100, 0.03% BSA, and 1 mM DTT. Enzyme and PEP (phosphoenolpyruvate) are added at 2× to all wells of an assay-ready plate containing serial dilutions of test compounds or DMSO vehicle. Final enzyme concentrations for PKR(wt), PKR(R510Q), and PKR(G332S) are 0.8 nM, 0.8 nM, and 10 nM respectively. Final PEP concentration is 100 μM. The Enzyme/PEP mixture is incubated with compounds for 30 minutes at RT before the assay is initiated with the addition of 2×ADP and KinaseGloPlus. Final concentration of ADP is 100 μM. […] For assays containing FBP, that reagent is added at 30 μM upon reaction initiation. Reactions are allowed to progress for 45 minutes at RT until luminescence is recorded by the BMG PHERAstar FS Multilabel Reader. The compound is tested in triplicate at concentrations ranging from 42.5 μM to 2.2 nM in 0.83% DMSO. AC50 measurements were obtained by the standard four parameter fit algorithm of ActivityBase XE Runner (max, min, slope and AC50). The AC50 value for a compound is the concentration (μM) at which the activity along the four parameter logistic curve fit is halfway between minimum and maximum activity.
(§3) As set forth in Table 2 below, AC50 values are defined as follows: ≤0.1 μM (+++); >0.1 μM and ≤1.0 μM (++); >1.0 μM and ≤40 μM (+); >40 μM (0).

PKR(R510Q) = PKR(R510Q) (Homo sapiens, UniProt P30613, R510Q); assay: as above; assay type: biochemical; details: R510Q variant; Luminescence Assay of Example 2
Method: as §1, §2, §3

PKR(wt) = PKR(wt) (Homo sapiens, UniProt P30613); assay: as above; assay type: biochemical; details: wild type; Luminescence Assay of Example 2
Method: as §1, §2, §3

[1] = Phase 1: safety, adverse events in SCD patients; assay type: in vivo, human
Method: All SCD patients who received a single 700 mg dose of Compound 1 or placebo were monitored for adverse events for 7 days. The incidence of treatment emergent adverse events (TEAEs) in SCD patients receiving Compound 1 (700 mg) or placebo are reported in Table 23. Six TEAEs were reported in 4 patients; all TEAEs were grade 1 and transient. Specifically, six TEAEs were reported in 4 of 7 (57%) patients, including 3 TEAEs (arthralgia, headache, palpitations) in 2 of 5 (40%) pts receiving Compound 1 and 3 TEAEs (back pain, myalgia, pruritis) in 2 of 2 (100%) pts receiving placebo; all TEAEs were grade 1 and transient. […] One possibly related TEAE (palpitations) occurred about 8 hours post dose. No other symptoms were observed, and the palpitations resolved in <1 minute. […] The single 700 mg dose of Compound 1 was considered tolerable, and the first multiple dose SCD cohort was initiated.
Based on data from the MAD1 (300 mg once daily for 14 days), Compound 1 is well-tolerated in patients with SCD. In all, eighteen TEAEs were reported in 7 of 9 patients in the MAD1 (300 mg once daily) cohort (N=9). These included (a) eight Grade 1 TEAEs, including 3 patients c/o headache, 1 each of nausea, constipation, somnolence, increased LDH and increased AST, of which two AEs considered to be possibly related to study treatment were reported by one patient each (1 AE of headache and 1 AE of nausea); (b) six Grade 2 TEAEs, including 3 uncomplicated sickle pain events (in 2 patients), 1 patient with N/V and 1 increased reticulocytes, of which no AEs were considered related to study treatment, all AEs of pain events were considered unrelated and consistent with each patient's SCD pain history, and all AEs were treated with patient's standard home pain medications (no SAE/no hospitalization); and (c) one Grade 4 TEAE of elevated creatine kinase, unrelated to study treatment. Non-treatment-related AEs were consistent with events experienced in this patient population. No treatment-related serious AEs were reported.

[2] = Solubility in water or buffered solutions; assay type: physicochemical; details: aqueous buffer, pH about 1.07 to about 8.69
aromatase = target: T1, aromatase (Homo sapiens, UniProt P11511); assay: Aromatase inhibition; details: non-clinical testing
T1 sequence (P11511 1-503): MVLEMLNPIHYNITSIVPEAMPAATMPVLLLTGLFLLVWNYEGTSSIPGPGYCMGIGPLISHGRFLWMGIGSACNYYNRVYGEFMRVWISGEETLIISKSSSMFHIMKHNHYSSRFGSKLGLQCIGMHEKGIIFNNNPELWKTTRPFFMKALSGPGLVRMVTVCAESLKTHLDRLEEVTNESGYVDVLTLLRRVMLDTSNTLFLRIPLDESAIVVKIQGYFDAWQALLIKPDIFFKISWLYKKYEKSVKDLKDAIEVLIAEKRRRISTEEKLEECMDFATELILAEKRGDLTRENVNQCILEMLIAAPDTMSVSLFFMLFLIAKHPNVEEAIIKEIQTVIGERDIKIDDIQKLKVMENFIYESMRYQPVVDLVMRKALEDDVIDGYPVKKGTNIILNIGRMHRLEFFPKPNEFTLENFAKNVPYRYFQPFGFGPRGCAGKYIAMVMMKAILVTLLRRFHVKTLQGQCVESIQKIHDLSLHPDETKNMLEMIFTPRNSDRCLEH

[3] = Preclinical safety: arrhythmia risk, mutagenicity, panels of receptors, enzymes, ion channels and kinases in vitro
[4] = SCD MAD1, 300 mg × 14 days, n = 7

PKR(R510Q), sequence (P30613 whole entry R510Q): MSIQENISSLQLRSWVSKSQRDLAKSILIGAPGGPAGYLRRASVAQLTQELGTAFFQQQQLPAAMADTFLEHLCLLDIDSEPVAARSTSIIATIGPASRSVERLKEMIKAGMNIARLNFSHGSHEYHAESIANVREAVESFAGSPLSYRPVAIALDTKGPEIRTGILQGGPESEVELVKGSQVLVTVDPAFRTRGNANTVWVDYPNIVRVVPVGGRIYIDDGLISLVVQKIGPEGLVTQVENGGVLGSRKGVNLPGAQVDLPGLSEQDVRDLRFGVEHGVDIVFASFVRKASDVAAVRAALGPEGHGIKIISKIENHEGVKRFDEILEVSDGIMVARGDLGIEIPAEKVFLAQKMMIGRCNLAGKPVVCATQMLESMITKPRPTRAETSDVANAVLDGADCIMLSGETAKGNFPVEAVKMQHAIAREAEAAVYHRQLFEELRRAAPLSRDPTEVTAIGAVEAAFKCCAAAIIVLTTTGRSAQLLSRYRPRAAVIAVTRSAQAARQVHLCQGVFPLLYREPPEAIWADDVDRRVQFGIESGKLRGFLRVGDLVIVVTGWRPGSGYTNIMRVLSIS
PKR(wt), sequence (P30613 whole entry): as the sequence (P30613 whole entry R510Q) above, with Q510R counted along it
PKR(G332S), sequence (P30613 whole entry G332S): as the sequence (P30613 whole entry R510Q) above, with G332S, Q510R counted along it

O=C([C@H](CO)c1ccccc1)N1CC2=C(C1)CN(S(=O)(=O)c1cnc3c(c1)OCCO3)C2 (single isomer, unassigned) [Compound 1]
AC50 (PKR(G332S)): < 1000 nM | AC50 (PKR(R510Q)): < 1000 nM | AC50 (PKR(wt)): < 1000 nM | Any serious adverse event (SAE), n (%) [1, 4]: 0 n (%) | TEAE related to study drug, n (%) [1, 4]: 2 (29%) n (%) | serious adverse events or TEAEs leading to withdrawal ([1]; SCD single dose cohort): No serious adverse events (SAEs) or TEAEs leading to pt withdrawal | Any TEAE, n (%) ([1]; SCD, single dose 700 mg, N = 5): 2 (40) n (%) | TEAE related to study drug, n (%) ([1]; SCD, single dose 700 mg, N = 5): 1 (20) n (%) | solubility [2]: 22 to 25 µg/mL (≈ 48.1 to 54.6 µM) | aromatase inhibition (aromatase): absence of aromatase inhibition | preclinical evidence of arrhythmia risk, mutagenicity, or nonspecific binding activity [3]: has not demonstrated any preclinical evidence of arrhythmia risk, mutagenicity, or nonspecific binding activity
